Source: ChEMBL document CHEMBL2311454, “Discovery and evaluation of novel inhibitors of mycobacterium protein tyrosine phosphatase B from the 6-Hydroxy-benzofuran-5-carboxylic acid scaffold” (J Med Chem, 2013)

Experiments:
[1] = biological target: T1, Tyrosine-protein phosphatase non-receptor type 1 (Homo sapiens, UniProt P18031); test: Inhibition of PTP1B (unknown origin) expressed in Escherichia coli using pNPP substrate after 5 mins by spectrophotometric analysis
T1 sequence (P18031 whole entry): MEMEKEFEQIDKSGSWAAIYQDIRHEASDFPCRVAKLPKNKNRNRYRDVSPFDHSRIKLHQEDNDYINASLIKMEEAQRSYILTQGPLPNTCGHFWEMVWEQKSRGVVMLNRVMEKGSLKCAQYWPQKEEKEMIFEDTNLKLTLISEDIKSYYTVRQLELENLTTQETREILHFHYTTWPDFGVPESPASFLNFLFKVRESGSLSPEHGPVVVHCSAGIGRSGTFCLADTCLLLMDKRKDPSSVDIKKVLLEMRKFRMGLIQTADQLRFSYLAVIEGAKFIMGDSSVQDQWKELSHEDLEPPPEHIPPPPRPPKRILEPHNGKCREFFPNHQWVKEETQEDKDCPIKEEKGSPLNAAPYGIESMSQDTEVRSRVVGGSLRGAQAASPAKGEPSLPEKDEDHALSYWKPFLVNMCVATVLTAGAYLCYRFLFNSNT

[2] = biological target: T2, Tyrosine-protein phosphatase non-receptor type 2 (Homo sapiens, UniProt P17706); test: Inhibition of TCPTP (unknown origin) expressed in Escherichia coli using pNPP substrate after 5 mins by spectrophotometric analysis
T2 sequence (P17706 whole entry): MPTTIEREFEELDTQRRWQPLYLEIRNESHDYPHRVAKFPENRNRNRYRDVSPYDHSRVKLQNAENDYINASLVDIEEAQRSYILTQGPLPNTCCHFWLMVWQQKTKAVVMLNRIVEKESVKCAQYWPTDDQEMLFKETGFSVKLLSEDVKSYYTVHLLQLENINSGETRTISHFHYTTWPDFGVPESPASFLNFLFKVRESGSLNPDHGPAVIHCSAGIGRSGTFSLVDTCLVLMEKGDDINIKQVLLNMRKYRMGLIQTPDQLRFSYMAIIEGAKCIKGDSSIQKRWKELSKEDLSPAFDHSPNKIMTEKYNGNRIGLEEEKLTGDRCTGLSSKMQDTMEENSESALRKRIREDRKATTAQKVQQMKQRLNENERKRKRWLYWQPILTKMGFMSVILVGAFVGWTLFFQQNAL

[3] = biological target: T3, Tyrosine-protein phosphatase non-receptor type 9 (Homo sapiens, UniProt P43378); test: Inhibition of PTPMEG2 (unknown origin) expressed in Escherichia coli using pNPP substrate after 5 mins by spectrophotometric analysis
T3 sequence (P43378 whole entry): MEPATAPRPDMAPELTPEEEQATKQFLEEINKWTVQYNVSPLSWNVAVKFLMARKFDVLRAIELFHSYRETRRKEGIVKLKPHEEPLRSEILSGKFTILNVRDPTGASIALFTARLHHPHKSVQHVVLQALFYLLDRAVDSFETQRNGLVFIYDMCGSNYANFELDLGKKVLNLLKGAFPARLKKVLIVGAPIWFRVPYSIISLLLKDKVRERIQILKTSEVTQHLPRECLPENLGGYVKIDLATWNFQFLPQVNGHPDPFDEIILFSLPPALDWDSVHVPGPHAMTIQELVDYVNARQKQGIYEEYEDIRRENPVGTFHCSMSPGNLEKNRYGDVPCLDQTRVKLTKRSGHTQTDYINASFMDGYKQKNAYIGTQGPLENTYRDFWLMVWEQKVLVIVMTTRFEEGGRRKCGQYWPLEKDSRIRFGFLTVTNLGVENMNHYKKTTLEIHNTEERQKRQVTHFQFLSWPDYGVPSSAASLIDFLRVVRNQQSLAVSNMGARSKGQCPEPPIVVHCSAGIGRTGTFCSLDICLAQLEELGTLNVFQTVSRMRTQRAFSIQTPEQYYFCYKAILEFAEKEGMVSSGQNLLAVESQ

[4] = biological target: Dual specificity protein phosphatase 3 (Homo sapiens, UniProt P51452); test: Inhibition of VHR (unknown origin) expressed in Escherichia coli using pNPP substrate after 5 mins by spectrophotometric analysis
[5] = biological target: T4, Receptor-type tyrosine-protein phosphatase C (Homo sapiens, UniProt P08575); test: Inhibition of CD45 (unknown origin) expressed in Escherichia coli using pNPP substrate after 5 mins by spectrophotometric analysis
T4 sequence (P08575 whole entry): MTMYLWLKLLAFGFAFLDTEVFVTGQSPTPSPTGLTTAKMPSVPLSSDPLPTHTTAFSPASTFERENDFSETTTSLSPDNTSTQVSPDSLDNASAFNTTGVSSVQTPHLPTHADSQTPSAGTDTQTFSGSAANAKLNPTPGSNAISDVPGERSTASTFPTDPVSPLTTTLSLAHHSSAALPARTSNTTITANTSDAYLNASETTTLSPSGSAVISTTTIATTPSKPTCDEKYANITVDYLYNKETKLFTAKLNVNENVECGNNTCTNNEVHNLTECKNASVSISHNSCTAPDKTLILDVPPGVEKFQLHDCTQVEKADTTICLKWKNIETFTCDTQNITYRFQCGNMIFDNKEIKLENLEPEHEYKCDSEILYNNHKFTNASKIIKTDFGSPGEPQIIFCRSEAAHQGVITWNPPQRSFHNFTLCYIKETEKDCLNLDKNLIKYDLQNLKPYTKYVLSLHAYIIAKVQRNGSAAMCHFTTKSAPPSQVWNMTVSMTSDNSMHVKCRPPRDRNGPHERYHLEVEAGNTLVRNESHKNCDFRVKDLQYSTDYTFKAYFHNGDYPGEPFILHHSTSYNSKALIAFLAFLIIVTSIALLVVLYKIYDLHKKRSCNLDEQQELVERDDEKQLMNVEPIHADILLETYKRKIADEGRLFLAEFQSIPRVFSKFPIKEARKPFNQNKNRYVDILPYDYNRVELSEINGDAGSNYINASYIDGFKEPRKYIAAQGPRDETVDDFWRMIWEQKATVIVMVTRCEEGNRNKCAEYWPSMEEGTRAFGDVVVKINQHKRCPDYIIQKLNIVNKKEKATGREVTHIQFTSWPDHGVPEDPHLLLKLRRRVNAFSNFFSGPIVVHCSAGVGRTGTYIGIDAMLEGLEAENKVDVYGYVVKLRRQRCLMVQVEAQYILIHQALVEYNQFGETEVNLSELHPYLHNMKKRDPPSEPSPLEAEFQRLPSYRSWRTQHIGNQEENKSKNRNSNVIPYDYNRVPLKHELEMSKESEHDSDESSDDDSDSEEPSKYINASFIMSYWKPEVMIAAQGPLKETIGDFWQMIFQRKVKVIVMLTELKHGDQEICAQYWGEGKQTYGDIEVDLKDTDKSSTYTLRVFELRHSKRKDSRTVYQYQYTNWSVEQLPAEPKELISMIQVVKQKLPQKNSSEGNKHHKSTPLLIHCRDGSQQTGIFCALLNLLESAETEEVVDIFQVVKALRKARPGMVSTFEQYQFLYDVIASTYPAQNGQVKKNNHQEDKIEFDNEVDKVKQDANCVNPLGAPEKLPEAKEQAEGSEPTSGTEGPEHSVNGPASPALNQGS

Chain of Dual specificity protein phosphatase 3 (P51452 whole entry): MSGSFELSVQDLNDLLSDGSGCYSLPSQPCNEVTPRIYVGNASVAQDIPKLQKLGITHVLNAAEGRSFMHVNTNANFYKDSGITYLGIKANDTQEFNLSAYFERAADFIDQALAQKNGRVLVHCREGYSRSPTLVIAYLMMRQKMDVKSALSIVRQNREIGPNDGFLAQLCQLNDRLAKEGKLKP

SMILES | IC50 [1] [µM] | IC50 [2] [µM] | IC50 [3] [µM] | IC50 [4] [µM] | IC50 [5] [µM]
O=C(O)c1cc2c(CCc3cccc(C(F)(F)F)c3)c(-c3ccccc3)oc2cc1O | 7.4 | 10 | 8.6 | 6.2 | 10.1
O=C(O)c1cc2c(CCc3cccc(F)c3)c(-c3ccccc3)oc2cc1O | 60 | 33 | 110 | 22 | 120
C[C@]12CCC(=O)C=C1CC[C@@H]1[C@@H]2CC[C@@]2(C)[C@H]1CC[C@]2(O)C#Cc1c(-c2ccccc2)oc2cc(O)c(C(=O)O)cc12 | > 50 | > 50 | > 100 | > 100 | > 100
O=C(O)c1cc2c(CCc3ccc(Oc4ccccc4)cc3)c(-c3ccccc3)oc2cc1O | 8 | 11.8 | 7.7 | 6.3 | 14.2
O=C(O)c1cc2c(CCc3ccc(OC(F)(F)F)cc3)c(-c3ccccc3)oc2cc1O | 8.4 | 8.9 | 8.4 | 6.7 | 18.9
O=C(O)c1cc2c(/C=C\c3cc(F)cc(F)c3)c(-c3ccccc3)oc2cc1O | 8 | 9.5 | 9.2 | 8.6 | 13.1
O=C(O)c1cc2c(C#CCO)c(-c3ccccc3)oc2cc1O | > 100 | > 100 | > 100 | > 100 | > 100
C#Cc1c(-c2ccccc2)oc2cc(O)c(C(=O)O)cc12 | > 50 | > 50 | 85 | > 50 | 80
